Laboratory results from patent US6191290A, “Taxane derivatives for targeted therapy of cancer” (UAB Research Foundation, priority 2000, dated 2001).

Key:
[1] = Solubility in aqueous and organic solvents; format: physicochemical; settings: unconjugated peptide
From the text: Prior to the biological evaluation of this compound, two key issues needed to be addressed: The overall water solubility and the cell surface receptor binding ability of the conjugate.

NCI-H1299 cells = assay: Cytotoxicity assay at day 4 against NCI-H1299 cells, conjugate versus underivatized paclitaxel
Protocol: To evaluate the cytotoxic effects of the paclitaxel conjugate, experiments were designed to compare these effects with the underivatized, unconjugated paclitaxel.
To evaluate the cytotoxic activity of the conjugate relative to the intact, underivatized paclitaxel on the NCI-H1299 cells, 25 nM and 50 nM samples of paclitaxel and 10 nM and 30 nM solutions of the conjugate were incubated with the cells and the survival was assessed on day 4.

[2] = test system: Burkitts lymphoma xenografts; settings: nude mice bearing Burkitts lymphoma xenografts; cited from earlier work
[3] = test system: G18 human astrocytoma cells; settings: cited from earlier work
[4] = clinical trials; cited from earlier work
[5] = Homo sapiens, NCI-H1299, 96 h, read-out: cytotoxicity (cell destruction)
[6] = Homo sapiens, NCI-H1299, 96 h, read-out: growth inhibition / cell destruction

Structure (SMILES) | solubility [1] | cytotoxicity at 0.01 µM (NCI-H1299 cells; [5]) | cytotoxicity at 0.025 µM (NCI-H1299 cells; [5]) | inhibition at 0.025 µM (NCI-H1299 cells; [6]) | inhibition at 0.05 µM (NCI-H1299 cells; [6]) | cytotoxicity (cell destruction) (NCI-H1299 cells; human, nci-h1299 cells, 96 h, 0.01 µM) | radiosensitizing effect [2] | radiosensitizing effect [3] | reported side effects [4]
CC(C)C[C@H](NC(=O)[C@H](Cc1cnc[nH]1)NC(=O)CNC(=O)[C@@H](NC(=O)[C@H](C)NC(=O)[C@H](Cc1c[nH]c2ccccc12)NC(=O)[C@@H](N)CCC(N)=O)C(C)C)C(N)=O [BBN[7-13]] | soluble only in DMF and alcohols | – | – | – | – | – | – | – | –
CC(=O)O[C@H]1C(=O)[C@@]2(C)[C@H]([C@H](OC(=O)c3ccccc3)[C@]3(O)C[C@H](OC(=O)[C@H](O)[C@@H](NC(=O)c4ccccc4)c4ccccc4)C(C)=C1C3(C)C)[C@]1(OC(C)=O)CO[C@@H]1C[C@@H]2O [paclitaxel] | – | 0% | 20% | 23% | 51% | 0% | radiosensitizing effect | radiosensitizing effect | neutropenia, mucositis, cardiac and neurological toxicities in addition to hypersensitivity
